Measurements reported in US9079891B2, “Compounds that modulate intracellular calcium” (CALCIMEDICA, INC., priority 2010, dated 2015).

Tests used:
[1] = target: T1, recombinant human STIM1 and Orai1 (Homo sapiens, UniProt Q96D31); assay: Fluorescence-based assay of store-operated calcium entry in Orai1/STIM1 stable cells (FLIPR); assay type: cell-based; details: HEK-293 cells stably expressing human Orai1/STIM1; Fluo-4; Peak-Basal signal; read-out: FLIPR_CRAC: 9 point CRC: O1S1_JR251: IC50: Peak_over_Basal
T1 construct: c-myc (C); expressed in transfected cells; host or cells: HEK-293 cells stably expressing human STIM1 and human Orai1
T1 sequence (Q96D31 whole entry): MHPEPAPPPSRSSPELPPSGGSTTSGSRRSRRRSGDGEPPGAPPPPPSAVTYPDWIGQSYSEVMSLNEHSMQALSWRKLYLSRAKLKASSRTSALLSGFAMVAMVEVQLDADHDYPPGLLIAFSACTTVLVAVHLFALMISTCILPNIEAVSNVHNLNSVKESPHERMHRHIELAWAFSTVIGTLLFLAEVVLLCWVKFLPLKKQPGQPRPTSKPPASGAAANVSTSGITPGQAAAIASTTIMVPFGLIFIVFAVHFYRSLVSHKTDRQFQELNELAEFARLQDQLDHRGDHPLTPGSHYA
Description: A. Fluorescence-Based Assay of Store-Operated Calcium Entry in Orai1/Stim1 Stable Cells.
Cells stably expressing recombinant human STIM1 and Orai1 are generated by transfecting a human Orai1 expression plasmid (pcDNA3.1-Orai1-cmyc) into HEK-293 cells stably overexpressing human STIM1 (Roos et al. 2005 JCB 169(3): 435-445). Colonies of cells stably expressing both STIM1 and Orai1 proteins are selected and then subcloned by limiting dilution. Cells were cultured at 37° C./6% CO2 in complete medium with 10% FBS and appropriate selection markers.
The day prior to performing the assay Orai1/STIM1 stable cells are plated in 50 μL of complete medium at 90-95% confluence in a 384 well plate. Cells are grown at 37° C./6% CO2 overnight. On the day of the assay, 1.5 μM fluo-4-AM (Invitrogen) in complete medium is added to the cells, which are then incubated for 1 hour at RT. Cells are washed once in Ca^2+-free HBSS (Hank's buffered saline solution) and 35 μl of Ca^2+-free HBSS is added to each well. Test compounds are added to wells in a 10 μL Ca^2+-free HBSS solution, prepared at 4.5× the desired final concentration, and incubated for 30 minutes at RT. The initial baseline fluorescence signal is then measured with a FLIPR^384 (Molecular Devices) plate reader. Calcium entry is initiated by adding 5 μl of 10×CaCl2 (10 mM) in HBSS, and changes in cellular fluorescence are measured with the FLIPR^384 plate reader. In each well, the magnitude of the fluorescence signal as a result of calcium entry into the cell is determined by calculating the difference between the peak fluorescence signal measured after calcium addition and the initial baseline fluorescence signal (designated Peak-Basal). IC50 values are typically calculated as the concentration that inhibited 50% of the Peak-Basal signal.

[2] = test system: RBL-2H3 cells; assay: Fluorescence-based assay of store-operated calcium entry in RBL-2H3 cells (FLIPR, thapsigargin); assay type: cell-based, rat; details: Rattus norvegicus, Fluo-4, Upslope 0-7 sec, read-out: FLIPR_CRAC: 9 pt CRC - Fluo4_TG-D: RBL-2H3: IC50: Upslope 0-7 sec
Description: B. Fluorescence-Based Assay of Store-Operated Calcium Entry in RBL-2H3 Cells.
RBL-2H3 cells are obtained from ATCC and maintained in complete medium with 10% FBS at 37° C./6% CO2.
The day prior to performing the assay, RBL-2H3 cells are plated in 50 μl of complete medium in a 384 well plate. Cells are grown at 37° C./6% CO2 overnight and grow to 50-60% confluence by the next day. On the assay day, 1.5 μM Fluo-4-AM dye (Invitrogen) in complete medium is added and incubated for 1 hour at RT. Cells are washed twice in Ca^2+-free HBSS buffer and 35 μl Ca^2+-free HBSS buffer is added to each well. 10 μl of a test compound prepared in a Ca^2+-free HBSS solution at 4.5× of the desired concentration is added to a well and incubated for 5 minutes at RT. 10 μl of thapsigargin prepared in a Ca^2+-free HBSS solution at 5.5× of the desired concentration (5.5 uM) is added to each well and incubated for an additional 25 minutes. The initial baseline fluorescence signal is measured with a FLIPR^384 (Molecular Devices) plate reader. 5 μl of 12× calcium in HBSS (12 mM) is added and changes in cellular fluorescence are measured with the FLIPR^384 plate reader. In each well, the change in the fluorescent signal as a function of time due to calcium entry into the cell is determined by calculating the difference between the fluorescent signal measured 7 seconds after calcium addition and the initial baseline fluorescence signal at time zero (t=0). This parameter is designated Upslope. The IC50 value is calculated as the concentration at which 50% of the Upslope is inhibited.

[3] = test system: secreted IL-2 in Jurkat T cells; assay: In vitro assay of cytokine (IL-2) release from T cells; assay type: cell-based; details: Homo sapiens; Jurkat E6-1 cells; PHA/TPA stimulation 20 hours; IL-2 ELISA
Description: In Vitro Assay of Cytokine Release from T Cells
Jurkat E6-1 cells are obtained from ATCC and maintained in complete medium with 10% FBS at 37° C./6% CO2.
The day prior to performing the assay, Jurkat T cells are plated in 90 μL of HBSS Buffer with 1.8 mM CaCl2 and 1.75% fetal bovine serum (FBS) in a 96 well plate at a density of 1.5×10^5 cells/well for 3 hours. 10 μl of 10× test compound prepared in HBSS is added and incubated for 10 minutes at 37° C./6% CO2. Cells are stimulated by the addition of 10 μl of 11×PHA/TPA (27.5 μg/mL PHA/880 nM TPA) and incubated at 37° C./6% CO2 for 20 hours. On the following day, the supernatants are collected and assayed for IL-2 levels by ELISA according to the manufacturer's protocols. The IC50 value is calculated as the concentration at which 50% of secreted IL-2 in vehicle treated cells is inhibited.

Compound | IC50 [1] [nM] | IC50 [2] [nM] | IC50 [3] [nM]
Cc1nc2cc(Cl)c(-c3cnc(NC(=O)c4ccccc4Cl)s3)cc2o1 [Example 19, N-[5-(5-chloro-2-methybenzoxazol-6-yl)(1,3-thiazol-2-yl)](2-chlorophenyl)carboxamide] | < 600 | < 600 | 50 to 100
Cc1nc2cc(Cl)c(-c3ccc(C(=O)Nc4ccccc4F)s3)cc2o1 [Example 2, [5-(5-chloro-2-methylbenzoxazol-6-yl)(2-thienyl)]-N-(2-fluorophenyl)carboxamide] | < 600 | < 600 | < 50
Cc1nc2cc(Cl)c(-c3ccc(C(=O)Nc4ccccc4Cl)s3)cc2o1 [Example 1, [5-(5-chloro-2-methylbenzoxazol-6-yl)(2-thienyl)]-N-(2-chlorophenyl)carboxamide] | < 600 | < 600 | < 50
Cc1cc2cn(C)nc2cc1-c1ccc(C(=O)Nc2ccccc2F)s1 [Example 13] | < 600 | < 600 | < 50
Cc1cc2scnc2cc1-c1ccc(C(=O)Nc2ccccc2F)s1 [Example 5, N-(2-fluorophenyl)[5-(6-methylbenzothiazol-5-yl)(2-thienyl)]carboxamide] | < 600 | < 600 | < 50
Cc1nc2cc(Cl)c(-c3ccc(C(=O)Nc4c(F)cccc4F)s3)cc2o1 [Example 3, [5-(5-chloro-2-methylbenzoxazol-6-yl)(2-thienyl)]-N-(2,6-difluorophenyl)carboxamide] | < 600 | < 600 | < 50
Cc1cc2c(C)noc2cc1-c1ccc(C(=O)Nc2ccccc2F)s1 [Example 11, [5-(3,5-dimethylbenzo[d]isoxazol-6-yl)(2-thienyl)]-N-(2-fluorophenyl)carboxamide] | < 600 | < 600 | < 50
Cc1cc2scnc2cc1-c1ccc(C(=O)Nc2c(F)cccc2F)s1 [Example 4, N-(2,6-difluorophenyl)[5-(6-methylbenzothiazol-5-yl)(2-thienyl)]carboxamide] | < 600 | < 600 | < 50
Cc1cc2c(C)noc2cc1-c1ccc(C(=O)Nc2c(F)cccc2F)s1 [Example 10, N-(2,6-difluorophenyl)[5-(3,5-dimethylbenzo[d]isoxazol-6-yl)(2-thienyl)]carboxamide] | < 600 | < 600 | < 50
O=C(Nc1ccccc1F)c1ccc(-c2cc3scnc3cc2Cl)s1 [Example 9, [5-(5-chlorobenzothiazol-6-yl)(2-thienyl)]-N-(2-fluorophenyl)carboxamide] | < 600 | < 600 | < 50
O=C(Nc1c(F)cccc1F)c1ccc(-c2cc3scnc3cc2Cl)s1 [Example 7, N-(2,6-difluorophenyl)[5-(5-chlorobenzothiazol-6-yl)(2-thienyl)]carboxamide] | < 600 | < 600 | < 50
Cc1cc2scnc2cc1-c1ccc(C(=O)Nc2ccccc2Cl)s1 [Example 6, N-(2-chlorophenyl)[5-(6-methylbenzothiazol-5-yl)(2-thienyl)]carboxamide] | < 600 | < 600 | < 50

More lines, now with the values ahead:

IC50 [1] [nM] | IC50 [2] [nM] | IC50 [3] [nM] | Compound
< 600 | < 600 | < 50 | Cn1nc(-c2ccccc2)cc1-c1ccc(C(=O)Nc2c(F)cccc2F)s1 [Example 42, N-(2,6-difluorophenyl)[5-(1-methyl-3-phenylpyrazol-5-yl](2-thienyl)}carboxamide]
< 600 | < 600 | < 50 | Cn1nc(-c2nccs2)cc1-c1ccc(C(=O)Nc2ccccc2Cl)s1 [Example 55]
< 600 | < 600 | < 50 | Cn1nc(-c2ccco2)cc1-c1ccc(C(=O)Nc2c(F)cccc2F)s1 [Example 56, N-(2,6-difluorophenyl)[5-(3-(2-furyl)-1-methylpyrazol-5-yl](2-thienyl)]carboxamide]
> 1200 | < 600 | < 50 | Cc1cc2c(cc1-c1cnc(NC(=O)c3c(F)cccc3F)s1)OC(F)(F)O2 [Example 83, (2,6-difluorophenyl)-N-[5-(2,2-difluoro-6-methylbenzo[d]1,3-dioxolen-5-yl)(1,3-thiazol-2-yl)]carboxamide]
600 to 1200 | < 600 | < 50 | Cc1cc2scnc2cc1-c1cnc(NC(=O)c2c(F)cccc2F)s1 [Example 20]
< 600 | < 600 | < 50 | Cn1nc(C(F)(F)F)cc1-c1cnc(NC(=O)c2ccccc2Cl)s1 [Example 27, (2-chlorophenyl)-N-{5-[1-methyl-3-(trifluoromethyl)pyrazol-5-yl](1,3-thiazol-2-yl)}carboxamide]
< 600 | < 600 | < 50 | Cn1nc(-c2ccccc2)cc1-c1ccc(C(=O)Nc2ncc(Cl)cc2F)s1 [Example 46]
< 600 | < 600 | < 50 | Cc1cc2c(cc1-c1cnc(NC(=O)c3ccccc3F)s1)OC(F)(F)O2 [Example 84]
< 600 | < 600 | < 50 | Cn1nc(C(F)(F)F)cc1-c1ccc(NC(=O)c2c(F)cccc2F)s1 [Example 74, (2,6-difluorophenyl)-N-{5-[1-methyl-3-(trifluoromethyl)pyrazol-5-yl](2-thienyl)}carboxamide]
< 600 | < 600 | < 50 | Cn1nc(-c2ccccc2F)cc1-c1ccc(C(=O)Nc2c(F)cccc2F)s1 [Example 35, N-(2,6-difluorophenyl){5-[3-(2-fluorophenyl)-1-methylpyrazol-5-yl](2-thienyl)}carboxamide]
< 600 | < 600 | > 100 | Cn1nc(-c2ccccc2F)cc1-c1ccc(C(=O)Nc2ccccc2Cl)s1 [Example 41]
< 600 | < 600 | < 50 | Cc1cc2c(cc1-c1cnc(NC(=O)c3ccncc3F)s1)OC(F)(F)O2 [Example 82]
< 600 | < 600 | < 50 | Cn1nc(-c2ccco2)cc1-c1ccc(C(=O)Nc2ccccc2F)s1 [Example 61]
600 to 1200 | < 600 | < 50 | CCn1nc(C(F)(F)F)cc1-c1cnc(NC(=O)c2ccccc2Cl)s1 [Example 24, (2-chlorophenyl)-N-{5-[1-ethyl-3-(trifluoromethyl)pyrazol-5-yl](1,3-thiazol-2-yl)}carboxamide]
